Drawing on patent US12570666B2, “Furoindazole derivatives” (Bayer Aktiengesellschaft, priority 2019, dated 2026), this text covers IC50 for 27 compounds.

Molecules are shown by their SMILES.

T1 sequence (Q9NQS5 whole entry): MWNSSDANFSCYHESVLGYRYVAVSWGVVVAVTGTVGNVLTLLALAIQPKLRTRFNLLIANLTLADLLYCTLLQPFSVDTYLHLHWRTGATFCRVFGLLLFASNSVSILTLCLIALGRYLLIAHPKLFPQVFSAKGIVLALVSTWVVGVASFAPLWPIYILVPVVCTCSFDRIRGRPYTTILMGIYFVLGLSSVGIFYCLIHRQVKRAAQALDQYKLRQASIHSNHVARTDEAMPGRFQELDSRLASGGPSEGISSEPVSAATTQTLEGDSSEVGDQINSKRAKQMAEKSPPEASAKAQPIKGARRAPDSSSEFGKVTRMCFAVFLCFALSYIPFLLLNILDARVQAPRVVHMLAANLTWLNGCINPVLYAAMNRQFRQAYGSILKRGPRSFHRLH

The assay concerns the target T1, human GPR84 receptor (Homo sapiens, UniProt Q9NQS5).
T1 construct: frozen aliquots prepared by acCELLerate; host or cells: CHO-K1
Nature of the assay: cAMP HTRF assay for identification of cellular GPR84 antagonists. The format is cell-based. Conditions: CHO-K1 cells stably expressing human GPR84; Forskolin + agonist 6-OAU (EC80); average or median values. The method in brief:
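Forskolin-stimulated CHO-K1 cells stably expressing human GPR84, agonist-suppressed cAMP measured by HTRF (665/620 ratio) after lysis. Compounds at 11 concentrations, 20 μM to 0.07 nM, duplicate; normalized to DMSO and no-agonist controls; IC50 by 4-parameter fit.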
A general note: TR-FRET usually uses a lanthanide donor and a delayed reading to cut background.
As a reminder, the IC50 is the concentration needed to halve the response being measured. For `O=C(NCc1cncs1)c1oc2c(c1C(F)(F)F)-c1nn(C[C@H]3COCCO3)cc1CC2` [Example 230, 2-[(2S)-1,4-Dioxan-2-ylmethyl]-N-(1,3-thiazol-5-ylmethyl)-8-(trifluormethyl)-4,5-dihydro-2H-furo[2,3-g]indazol-7-carboxamide], the IC50 was 881 nM.

For `Cc1ccnc(CCNC(=O)c2oc3c(c2C(F)(F)F)-c2nn(C[C@H]4COCCO4)cc2CC3)c1` [Example 231, 2-[(2S)-1,4-Dioxan-2-ylmethyl]-N-[2-(4-methylpyridin-2-yl)ethyl]-8-(trifluormethyl)-4,5-dihydro-2H-furo[2,3-g]indazol-7-carboxamide], the IC50 worked out at 1390 nM.

Consider `O=C(NCCc1ccccn1)c1oc2c(c1C(F)(F)F)-c1nn(C[C@H]3COCCO3)cc1CC2` [Example 233, 2-[(2S)-1,4-Dioxan-2-ylmethyl]-N-[2-(pyridin-2-yl)ethyl]-8-(trifluormethyl)-4,5-dihydro-2H-furo[2,3-g]indazol-7-carboxamide], for which the IC50 was 1120 nM.

On to `Cc1ccn(CCNC(=O)c2oc3c(c2C(F)(F)F)-c2nn(C[C@H]4COCCO4)cc2CC3)n1` [Example 234, 2-[(2S)-1,4-Dioxan-2-ylmethyl]-N-[2-(3-methyl-1H-pyrazol-1-yl)ethyl]-8-(trifluormethyl)-4,5-dihydro-2H-furo[2,3-g]indazol-7-carboxamide], for which the half-maximal inhibitory concentration (IC50) stood at 3470 nM.

As for `O=C(NCCc1c[nH]cn1)c1oc2c(c1C(F)(F)F)-c1nn(C[C@H]3COCCO3)cc1CC2` [Example 235, 2-[(2S)-1,4-Dioxan-2-ylmethyl]-N-[2-(1 H-imidazol-4-yl)ethyl]-8-(trifluormethyl)-4,5-dihydro-2H-furo[2,3-g]indazol-7-carboxamide], the IC50 was determined as 1600 nM.

In the case of `O=C(NCCc1cccnc1)c1oc2c(c1C(F)(F)F)-c1nn(C[C@H]3COCCO3)cc1CC2` [Example 236, 2-[(2S)-1,4-Dioxan-2-ylmethyl]-N-[2-(pyridin-3-yl)ethyl]-8-(trifluormethyl)-4,5-dihydro-2H-furo[2,3-g]indazol-7-carboxamide], the 50% inhibitory concentration (IC50) amounted to 8760 nM.

As for `O=C(NCCc1nccs1)c1oc2c(c1C(F)(F)F)-c1nn(C[C@H]3COCCO3)cc1CC2` [Example 237, 2-[(2S)-1,4-Dioxan-2-ylmethyl]-N-[2-(1,3-thiazol-2-yl)ethyl]-8-(trifluormethyl)-4,5-dihydro-2H-furo[2,3-g]indazol-7-carboxamide], the IC50 amounted to 496 nM.

`Cc1cccc(CNC(=O)c2oc3c(c2C(F)(F)F)-c2nn(C[C@H]4COCCO4)cc2CC3)n1` [Example 238, 2-[(2S)-1,4-Dioxan-2-ylmethyl]-N-[(6-methylpyridin-2-yl)methyl]-8-(trifluormethyl)-4,5-dihydro-2H-furo[2,3-g]indazol-7-carboxamide]: the IC50 worked out at 500 nM.

Take `O=C(NCc1cocn1)c1oc2c(c1C(F)(F)F)-c1nn(C[C@H]3COCCO3)cc1CC2` [Example 239, 2-[(2S)-1,4-Dioxan-2-ylmethyl]-N-(1,3-oxazol-4-ylmethyl)-8-(trifluormethyl)-4,5-dihydro-2H-furo[2,3-g]indazol-7-carboxamide]: the half-inhibitory concentration (IC50) was 136 nM.

Turning to `O=C(NCCc1cnccn1)c1oc2c(c1C(F)(F)F)-c1nn(C[C@H]3COCCO3)cc1CC2` [Example 240, 2-{[(2S)-1,4-dioxan-2-yl]methyl}-N-[2-(pyrazin-2-yl)ethyl]-8-(trifluoromethyl)-4,5-dihydro-2H-furo[2,3-g]indazole-7-carboxamide], the 50% inhibitory concentration (IC50) was found to be 2810 nM.

With `O=C(NC[C@@H]1COCCO1)c1oc2c(c1C(F)(F)F)-c1nn(CC3CCOCC3)cc1CC2` [Example 242, N-{[(2R)-1,4-dioxan-2-yl]methyl}-2-[(oxan-4-yl)methyl]-8-(trifluoromethyl)-4,5-dihydro-2H-furo[2,3-g]indazole-7-carboxamide], the IC50 came out at 29 nM.

As for `O=C(NC[C@@H]1CCCO1)c1oc2c(c1C(F)(F)F)-c1nn(CC3CCOCC3)cc1CC2` [Example 243, 2-[(oxan-4-yl)methyl]-N-{[(2S)-oxolan-2-yl]methyl}-8-(trifluoromethyl)-4,5-dihydro-2H-furo[2,3-g]indazole-7-carboxamide], the IC50 is 26 nM.

For the compound `O=C(NC[C@@H]1COCCO1)c1oc2c(c1C(F)F)-c1nn(C[C@H]3COCCO3)cc1CC2` [Example 244, 8-(difluoromethyl)-N-{[(2R)-1,4-dioxan-2-yl]methyl}-2-{[(2S)-1,4-dioxan-2-yl]methyl}-4,5-dihydro-2H-furo[2,3-g]indazole-7-carboxamide], the concentration for half-maximal inhibition (IC50) came out at 53 nM.

Turning to `O=C(NC[C@@H]1CCCO1)c1oc2c(c1C(F)F)-c1nn(C[C@H]3COCCO3)cc1CC2` [Example 245, 8-(difluoromethyl)-2-{[(2S)-1,4-dioxan-2-yl]methyl}-N-{[(2S)-oxolan-2-yl]methyl}-4,5-dihydro-2H-furo[2,3-g]indazole-7-carboxamide], the IC50 was found to be 61 nM.

With `C[C@@H]1Cc2oc(C(=O)NC[C@@H]3CCCO3)c(C(F)(F)F)c2-c2nn(CC3CCOCC3)cc21` [Example 264, (4 or 4S)-4-methyl-2-[(oxan-4-yl)methyl]-N-{[(2S)-oxolan-2-yl]methyl}-8-(trifluoromethyl)-4,5-dihydro-2H-furo[2,3-g]indazole-7-carboxamide], the half-maximal inhibitory concentration (IC50) was 13 nM.

As for `CC1(C)Cc2oc(C(=O)NC[C@@H]3COCCO3)c(C(F)(F)F)c2-c2nn(C[C@H]3COCCO3)cc21` [Example 267, N-{[(2R)-1,4-dioxan-2-yl]methyl}-2-{[(2S)-1,4-dioxan-2-yl]methyl}-4,4-dimethyl-8-(trifluoromethyl)-4,5-dihydro-2H-furo[2,3-g]indazole-7-carboxamide], the IC50 is 57 nM.

On to `CC1(C)Cc2oc(C(=O)NC[C@@H]3CCCO3)c(C(F)(F)F)c2-c2nn(C[C@H]3COCCO3)cc21` [Example 268, 2-{[(2S)-1,4-dioxan-2-yl]methyl}-4,4-dimethyl-N-{[(2S)-oxolan-2-yl]methyl}-8-(trifluoromethyl)-4,5-dihydro-2H-furo[2,3-g]indazole-7-carboxamide], for which the IC50 amounted to 38 nM.

For the compound `O=C(NC[C@@H]1COCCO1)c1oc2c(c1C(F)(F)F)-c1nn(C[C@H]3COCCO3)cc1C1(CCC1)C2` [Example 269, N-[(2R)-1,4-dioxan-2-ylmethyl]-2′-[(2S)-1,4-dioxan-2-ylmethyl]-8′-(trifluormethyl)-2′,5′-dihydrospiro[cyclobutan-1,4′-furo[2,3-g]indazol]-7′-carboxamide], the IC50 is 27 nM.

As for `Cn1ccc(CNC(=O)c2oc3c(c2C(F)(F)F)-c2nn(C[C@H]4COCCO4)cc2C2(CCC2)C3)n1` [Example 270, 2′-[(2S)-1,4-dioxan-2-ylmethyl]-N-[(1-methyl-1H-pyrazol-3-yl)methyl]-8′-(trifluormethyl)-2′,5′-dihydrospiro[cyclobutan-1,4′-furo[2,3-g]indazol]-7′-carboxamide], the IC50 is 192 nM.

Regarding `O=C(NC[C@@H]1CCCO1)c1oc2c(c1C(F)(F)F)-c1nn(C[C@H]3COCCO3)cc1C1(CCC1)C2` [Example 271, 2′-[(2S)-1,4-dioxan-2-ylmethyl]-N-[(2S)-tetrahydrofuran-2-ylmethyl]-8′-(trifluormethyl)-2′,5′-dihydrospiro[cyclobutan-1,4′-furo[2,3-g]indazol]-7′-carboxamide], the IC50 came to 26 nM.

As to `O=C(NCc1ncco1)c1oc2c(c1C(F)(F)F)-c1nn(C[C@H]3COCCO3)cc1C1(CCC1)C2` [Example 272, 2′-{[(2S)-1,4-dioxan-2-yl]methyl}-N-[(1,3-oxazol-2-yl)methyl]-8′-(trifluoromethyl)-2′,51-dihydrospiro[cyclobutane-1,4′-furo[2,3-g]indazole]-7′-carboxamide], the half-maximal inhibitory concentration (IC50) is 42 nM.

For `O=C(NC[C@@H]1COCCO1)c1oc2c(c1C(F)(F)F)-c1nn(Cc3ccccn3)cc1C1(CCC1)C2` [Example 273, N-[(2R)-1,4-Dioxan-2-ylmethyl]-2′-(pyridin-2-ylmethyl)-8′-(trifluormethyl)-2′,5′-dihydrospiro[cyclobutan-1,4′-furo[2,3-g]indazol]-7′-carboxamide], the IC50 was found to be 9 nM.

On to `O=C(NC[C@@H]1CCCO1)c1oc2c(c1C(F)(F)F)-c1nn(Cc3ccccn3)cc1C1(CCC1)C2` [Example 274, 2′-(Pyridin-2-ylmethyl)-N-[(2S)-tetrahydrofuran-2-ylmethyl]-8′-(trifluormethyl)-2′,5′-dihydrospiro[cyclobutan-1,4′-furo[2,3-g]indazol]-7′-carboxamide], for which the IC50 was 10 nM.

Consider `O=C(NCc1ncco1)c1oc2c(c1C(F)(F)F)-c1nn(Cc3ccccn3)cc1C1(CCC1)C2` [Example 275, N-(1,3-Oxazol-2-ylmethyl)-2′-(pyridin-2-ylmethyl)-8′-(trifluormethyl)-2′,5′-dihydrospiro[cyclobutan-1,4′-furo[2,3-g]indazol]-7′-carboxamide], for which the half-maximal inhibitory concentration (IC50) was 141 nM.

For `Cn1ccc(CNC(=O)c2oc3c(c2C(F)(F)F)-c2nn(Cc4ccccn4)cc2C2(CCC2)C3)n1` [Example 276, N-[(1-Methyl-1H-pyrazol-3-yl)methyl]-2′-(pyridin-2-ylmethyl)-8′-(trifluormethyl)-2′,5′-dihydrospiro[cyclobutan-1,4′-furo[2,3-g]indazol]-7′-carboxamide], the IC50 came to 156 nM.

For the compound `Cc1ccc(Cn2cc3c(n2)-c2c(oc(C(=O)NC[C@@H]4CCCO4)c2C(F)(F)F)CC32CCC2)nc1` [Example 277, 2′-[(5-Methylpyridin-2-yl)methyl]-N-[(2S)-tetrahydrofuran-2-ylmethyl]-8′-(trifluormethyl)-2′,5′-dihydrospiro[cyclobutan-1,4′-furo[2,3-g]indazol]-7′-carboxamide], the concentration for half-maximal inhibition (IC50) was 8 nM.

As for `Cc1ccc(Cn2cc3c(n2)-c2c(oc(C(=O)NC[C@@H]4COCCO4)c2C(F)(F)F)CC32CCC2)nc1` [Example 278, N-[(2R)-1,4-Dioxan-2-ylmethyl]-2′-[(5-methylpyridin-2-yl)methyl]-8′-(trifluormethyl)-2′,5′-dihydrospiro[cyclobutan-1,4′-furo[2,3-g]indazol]-7′-carboxamide], the IC50 was determined as 10 nM.
